Measurements published in US20050187581A1, “Methods of treating disorders with electric fields” (priority 2000, published 2005).
Like-named read-outs stand apart in the source and are kept apart here.

What was measured:
[1] = test system: AAPH-treated rats; experiment: Plasma lipid peroxide (TBARS) levels in AAPH-treated rats; assay type: in vivo, Sprague-Dawley rats; details: for Plasma levels of lipid peroxide compared to the sham EF-exposed group: AAPH-treated rats, P<0.05 (ascorbic acid), P<0.01 (superoxide dismutase); for Malondialdehyde concentration: plasma lipid peroxide, AAPH 10 mg/kg i.p., ascorbic acid 500 mg/kg p.o., SOD 50 mg/kg s.c., mean ± SEM, n=8
Procedure: (§1) To examine the effects of EF effect during oxidative stress, rats were divided into five groups (n=8) as follows: 1) non-treatment; 2) treatment with the oxidizing agent, AAPH, on experimental day seven; 3) co-treatment with EF and AAPH; 4) co-treatment with AAPH and the anti-oxidant agent, ascorbic acid; or 5) co-treatment with AAPH and superoxide dismutase. Rats of Group 3 were exposed to a sine wave of 50 Hz, 17,500 V/m intensity, 15 minutes per day for one week. In addition, Groups 1, 2, 4 and 5 were sham EF exposed, in which were maintained for an equal period of time inside the exposure cage with the system turned off. On the seventh day after EF was started, Group 3 was exposed to EF just after administration of AAPH (10 mg/kg, i.p.). In Group 4, ascorbic acid (500 mg/kg, p.o.) was administered 60 minutes before of the AAPH treatment. Superoxide dismutase (50 mg/kg, s.c., Nacalai Tesque, Tokyo, Japan) was administered to Group 5 just before the AAPH treatment. Under pentobarbital (45 mg/kg, i.p.) anesthesia, blood was collected from the abdominal cava vein 90 minutes later after AAPH administration, and the plasma was separated by centrifugation at 1,670×g for 10 minutes at 4° C. The plasma samples were stored at −80° C. until tested.
Thiobarbituric acid reactive substance (TBARS), as an indicator of the plasma concentration of lipid peroxide, was measured using a commercialized kit (Lipid peroxide-test Wako, Wako Ltd., Osaka, Japan).

[2] = Antioxidant activity (AOA) of plasma from AAPH-treated rats, against AAPH; assay type: in vivo, Sprague-Dawley rats; details: for AOAAAPH: ascorbic acid 500 mg/kg p.o., SOD 50 mg/kg s.c., mean ± SEM, n=8
Procedure: as §1
(§2) Plasma AOA was measured by a method using a derivative of methylene blue. Briefly, 0.1 ml plasma or a solution of ascorbic acid (Wako Ltd., Osaka, Japan) and 0.65 ml distilled water was added into 1.5 ml of Good's buffer adjusted to pH 5.8 (Good et al., 1966), including 1% triton X-100 supplemented with 3,7-bis-demethylamino-10-methyl carbamoyl phenothiazine (MCDP, 40 μM, KYOWA MEDEX Co., Ltd., Tokyo, Japan) and hemoglobin (67.5 μg/ml). After incubation for one minute at 37° C., 0.25 ml of tert-butylhydroperoxide (84 μM, BHP, Aldrich) as an alkoxyl radical initiator was added and reacted for 10 minutes at 37° C. In addition, AOA measurements in a reaction using AAPH (50 mM) as a peroxy radical initiator were conducted in Good's buffer without hemoglobin for 20 minutes at 37° C. A radical initiator not trapped by an antioxidant in each plasma sample will oxidize MCDP. The absorbance of the resultant blue color was subsequently measured by absorbance at 675 nm using a spectrophotometer (150-20, Hitachi). The equation to calculate AOA was the following: AOA (%)=(1−Abs1/Abs2)×100, where Abs1 is the absorbance of the plasma sample, and Abs2 is a value of the blank.

[3] = Antioxidant activity (AOA) of plasma from AAPH-treated rats, against BHP; assay type: in vivo, Sprague-Dawley rats; details: for Plasma antioxidant activity against BHP: ascorbic acid 500 mg/kg p.o., SOD 50 mg/kg s.c., mean ± SEM, n=8
Procedure: as §1, §2

[4] = test system: mouse splenocytes; experiment: [Ca^2+]c-high cells in lectin-stimulated mouse splenocytes, fluo-3 flow cytometry; assay type: cell-based, BALB/c mice; details: 5 μg/ml PHA, 1 mM CaCl2; EF-exposed and unexposed cells
Procedure: In order to avoid contact of the cells and the lower electrode, polycarbonate membrane (Isopore, MILLIPORE, MA USA) was placed between the dish and the insert. Approximately 1 ml of the cell suspension was poured into culture well/space and covered with a lid.
Female BALB/c mice, 4-7 wk old obtained from CLEA Inc. (Tokyo, Japan) maintained in a conventional animal house equipped with clean air-filtering device were splenectomized under anesthesia, and cell suspensions of splenocytes were prepared. To examine cell viability, the cells were cultivated in Dulbecco's modified Eagle's medium (SIGMA, MO, USA) supplemented with 10% fetal bovine serum (FSB). The cells were maintained in Hank's balanced salt solution (HBSS) (SIGMA, MO, USA) during examination for [Ca^2+]c which was carried out within 4 hr after cell preparation. Cells were stored at 4 degree C. prior to use.
Splenocytes (10^6 cells/ml) were incubated for 20 min at 37 degrees C. in HBSS containing 2.5 μM fluo-3-acetoxylmethyl (Molecular Probes, USA) [Vandenberghe et al., 1990]. The cell suspension was then diluted 5 times with HBSS containing 1% FBS, incubated for 40 min at 37 degrees C., washed 3 times with assay buffer, and the cells were then suspended in the assay buffer at a concentration of 1×10^6/ml. Throughout the cell preparation, the cell suspensions were mixed gently.
Considering the reported synergistic interaction between EMF and mitogen (Walleczek and Liburdy, 1990), concanavalin-A (Con-A) (Seikagaku Co., Tokyo, Japan) and phytohemaglutinin (PHA) (SIGMA, MO, USA) were used.
Taking into account the results of the viability test for exposed murine splenocytes earlier assayed, we chose to use the optimum culture and exposure conditions (60 Hz, 6 μA/cm^2 EF) in carrying out the following five experiments: • (1) cells suspended in HEPES-buffered saline (BS)+1 mM CaCl2 were exposed to EF for a total of 40 min, and 12.5 μg/ml of Con-A was added after the first 8 min of exposure. The control groups consisted of EF-unexposed cells containing Con-A, and EF-exposed cells without Con-A. Percent [Ca^2+]c-high cells was checked at certain exposure points; • (2) cells in HEPES-BS+1 mM CaCl2 were exposed for a total of 12 min, and different concentrations (1 ng-12.5 μg/ml) of Con-A were added after the first 4 min of exposure. The control group was essentially the same as that of the experimental group but without EF-exposure; • (3) cells in HEPES-BS+1 mM CaCl2 were exposed for a total of 8 min, and 5 μg/ml of PHA was added after the first 4 min of exposure. The control groups consisted of EF-unexposed cells containing PHA, and EF-exposed cells without PHA; • (4) cells suspended in HEPES-BS without CaCl2 were exposed for a total of 12 min, and different concentrations (1 ng-5 μg/mil) of Con-A were added after the first 4 min of exposure. The control group was essentially the same as the experimental group but without EF exposure; and • (5) to evaluate the persistent effect of EF exposure, cells suspended in HEPES-BS+[…] were exposed for a total of 4 min, after which different concentrations (0.025-12.5 μg/ml) of Con-A were added, and the generation of [Ca^2+]c-high cells for the next 8 min without EF exposure was monitored with flow cytometry. The control was essentially the same as the experimental group but without any EF-exposure. Statistical Analysis

[5] = Antioxidant activity (AOA) of rat plasma, ascorbic acid added in the test tube, AAPH as radical initiator; assay type: biochemical, Sprague-Dawley rats
Procedure: (§3) To examine the effects of EF on unstressed rats, rats were exposed to a sine wave of 50 Hz, 17,500 V/m intensity, 15 minutes per day for 1 one week. Each rat in three groups (n=5) was individually treated with an EF or a sham EF, or was not treated. Rats exposed to sham EF were maintained for an equal period of time inside the exposure cage with the system turned off. Under pentobarbital (45 mg/kg, i.p.) anesthesia, blood was collected from the abdominal cava vein after EF exposure on experimental day seven, and the plasma was separated by centrifugation at 1,670×g for 10 minutes at 4° C. The plasma samples were stored at −80° C. until tested.
(§4) Plasma AOA was measured by a method using a derivative of methylene blue. Briefly, 0.1 ml plasma or a solution of ascorbic acid (Wako Ltd., Osaka, Japan) and 0.65 ml distilled water was added into 1.5 ml of Good's buffer adjusted to pH 5.8 (Good et al., 1966), including 1% triton X-100 supplemented with 3,7-bis-demethylamino-10-methyl carbamoyl phenothiazine (MCDP, 40 μM, KYOWA MEDEX Co., Ltd., Tokyo, Japan) and hemoglobin (67.5 μg/ml). […] The absorbance of the resultant blue color was subsequently measured by absorbance at 675 nm using a spectrophotometer (150-20, Hitachi). The equation to calculate AOA was the following: AOA (%)=(1−Abs1/Abs2)×100, where Abs1 is the absorbance of the plasma sample, and Abs2 is a value of the blank.

[6] = Antioxidant activity (AOA) of rat plasma, ascorbic acid added in the test tube, BHP as radical initiator; assay type: biochemical, Sprague-Dawley rats
Procedure: as §3, §4

[7] = biological target: T1, human calcium receptor protein (HuPCaR) (Homo sapiens, UniProt P41180); experiment: FURA2 ratio fluorimetry of HuPCaR cells on stepwise additions of extracellular CaCl2; assay type: cell-based
T1 construct: expressed in transfected cells; host or cells: HEK (human embryonic kidney) cells, stably transfected
T1 sequence (P41180 20-1078): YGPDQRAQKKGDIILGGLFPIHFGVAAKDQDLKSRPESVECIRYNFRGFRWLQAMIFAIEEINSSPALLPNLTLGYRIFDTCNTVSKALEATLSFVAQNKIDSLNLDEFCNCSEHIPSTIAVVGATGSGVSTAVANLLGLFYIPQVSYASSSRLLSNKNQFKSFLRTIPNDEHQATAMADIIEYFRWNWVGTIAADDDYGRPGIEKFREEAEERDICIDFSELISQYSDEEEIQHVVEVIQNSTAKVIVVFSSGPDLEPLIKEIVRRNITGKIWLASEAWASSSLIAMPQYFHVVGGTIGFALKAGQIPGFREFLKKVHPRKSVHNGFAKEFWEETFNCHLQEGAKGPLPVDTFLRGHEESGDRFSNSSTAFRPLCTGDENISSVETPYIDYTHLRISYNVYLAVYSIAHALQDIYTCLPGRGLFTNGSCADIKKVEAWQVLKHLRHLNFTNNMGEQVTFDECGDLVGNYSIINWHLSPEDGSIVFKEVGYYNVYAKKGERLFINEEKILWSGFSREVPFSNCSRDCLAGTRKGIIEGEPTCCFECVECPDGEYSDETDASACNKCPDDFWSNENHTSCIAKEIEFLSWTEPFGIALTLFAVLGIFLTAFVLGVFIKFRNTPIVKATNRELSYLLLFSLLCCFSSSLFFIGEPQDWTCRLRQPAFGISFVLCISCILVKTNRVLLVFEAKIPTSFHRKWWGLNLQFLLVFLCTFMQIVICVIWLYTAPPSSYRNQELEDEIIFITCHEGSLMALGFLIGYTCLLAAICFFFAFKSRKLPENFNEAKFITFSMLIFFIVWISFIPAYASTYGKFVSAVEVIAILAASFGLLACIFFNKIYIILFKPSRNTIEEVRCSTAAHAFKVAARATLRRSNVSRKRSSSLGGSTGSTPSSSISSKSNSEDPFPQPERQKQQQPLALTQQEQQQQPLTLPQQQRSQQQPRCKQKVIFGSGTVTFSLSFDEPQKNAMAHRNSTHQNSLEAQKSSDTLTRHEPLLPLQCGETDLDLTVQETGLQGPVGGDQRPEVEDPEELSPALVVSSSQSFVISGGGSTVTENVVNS
Procedure: In selected experiments, ionomycin (1 micromolar final concentration-stock dissolved in dimethyl sulfoxide) was added in order to quantify differences in FURA2 ratio fluorescence. Ionomycin was added to the cells to obtain a maximal fluorescence signal from the FURA2 for purposes of quantification. FIG. 15 outlines the experimental system that was utilized to obtain the data described below. Cultured HEK or HuPCaR cells were loaded with FURA2 after their growth on plastic tissue culture dishes, scraped and rinsed in buffer to create a cell suspension that was then divided into various aliquots. Selected aliquots were exposed to EF in the EF exposure device. Subsequent to either EF exposure or sham control (no EF) treatments, aliquots of cells were used for standard ratio imaging fluorimetry analysis to measure changes in intracellular Ca^2+ concentrations. Initially, measurements were obtained of the baseline intracellular Ca^2+ concentration for each aliquot of cells as shown by the bracket marked #1 in FIG. 15. […] In an effort to obtain more quantitative data from individual aliquots within an individual experiment as well as comparison of data from different experiments, we incorporated the use of ionomycin as shown in FIG. 13 to determine the maximal FURA2 signal achievable within each aliquot of cells. […]

[8] = added to plasma of the non-treatment group, P<0.01
[9] = ascorbic acid 440 ng/ml added to plasma of non-treatment group, mean ± SEM, n=5

In the case of superoxide dismutase [SOD], the “Plasma levels of lipid peroxide compared to the sham EF-exposed group” value [1] is reported as “lower”, the Malondialdehyde concentration [1] is reported as 1.139 ± 0.10 nmol/mL and the “Plasma AOA compared to the sham EF-exposed group” value ([2]; AAPH-treated rats) is reported as “not different”. The “Plasma AOA compared to the non-treatment group” value ([2]; AAPH-treated rats, P<0.05) was “significantly suppressed”, the AOAAAPH ([2]; AAPH-treated rats) was 22.1 ± 2.5% and the “Plasma antioxidant activity against BHP” value ([3]; AAPH-treated rats) was 78.0 ± 2.1%.
In the case of phytohemaglutinin [PHA], the “[Ca^2+]c-high cells” value [4] is reported as “significant increases”.
With `CC(C)(N=NC(C)(C)C(=N)N)C(=N)N.Cl.Cl` [AAPH, 2,2′-azobis(2-amidinopropane)dihydrochloride] the “Change in plasma AOA against AAPH in rats treated with AAPH” value ([2]; AAPH 10 mg/kg i.p.) was “suppression” and the “Change in plasma AOA against BHP in rats treated with AAPH” value ([3]; AAPH 10 mg/kg i.p.) was “did not show any changes”.
With `O=C1O[C@H]([C@@H](O)CO)C(O)=C1O` [Ascorbic acid, ascorbic acid] the “Plasma levels of lipid peroxide compared to the sham EF-exposed group” value [1] was “lower”, the Malondialdehyde concentration [1] was 1.509 ± 0.05 nmol/mL and the “AOA of plasma against AAPH after addition of ascorbic acid” value [5, 8] was “significantly elevated”. The AOAAAPH [5, 9] was 62.0 ± 3.8 %, the “AOA of plasma against BHP after addition of ascorbic acid” value [6, 8] was “significantly elevated” and the AOABHP [6, 9] was 87.7 ± 0.3 %. For the same molecule, the “Plasma AOA compared to the other four groups” value ([2]; AAPH-treated rats, P<0.01) was “significantly higher”, the AOAAAPH ([2]; AAPH-treated rats) was 46.3 ± 3.2 % and the “AOA against BHP compared to the other four groups” value ([3]; AAPH-treated rats, P<0.01) was “increase”. The “Plasma antioxidant activity against BHP” value ([3]; AAPH-treated rats) was 87.5 ± 0.3 %.
`[Ca+2].[Cl-].[Cl-]` [Ca^2+, CaCl2] showed an EC50 ([7]; FURA2 response method of Quinn et al., read-out: EC50 value for Ca^2+ derived using the method outlined in FIG. 20) of 3.5 mM and an EC50 ([7]; calculated from Na+/Ca2+ ratio midpoint 36.6, Standard Experimental Buffer of 125 mM NaCl, FURA2 baseline, read-out: EC50 value for Ca) of 3.5 mM.
